The test system of the test is HEp-2. Put plainly: Cytotoxicity to human epidermoid carcinoma cells (HEP-2). Type of test: functional, cell-based.

Molecules are shown by their SMILES.

We go through two compounds from ChEMBL document CHEMBL1127666, “Phosphonate analogs of carbocyclic nucleotides” (J Med Chem, 1994).

For orientation: IC50 means the concentration that gives 50% inhibition. A high value points to a need for much substance.

Consider `Nc1nc(O)c2ncn([C@@H]3C[C@H](CO)[C@@H](O)C3)c2n1`, for which half-maximal inhibition (IC50) required 95 µM.
In turn, `Nc1nc(O)c2ncn(C3CC(O)C(OCP(=O)(O)O)C3)c2n1` (configuration not stated) yielded an IC50 of 2.4 µM.
